# Experimental data as given in patent US11903917B2, “MEK-inhibitor for the treatment of viral and bacterial infections” (priority 2017, dated 2024).
# Like-named read-outs stand apart in the source and are kept apart here.
# What was measured:
# S. aureus 6850 [1] = assay: MIC of antibiotics (MIC test stripes) after over-night treatment of bacteria with PD0184264; type: cell-based, Staphylococcus aureus; details: for MIC: read-out: Minimal inhibitory concentration (MIC)
# S. aureus USA300 = assay: as above; type: cell-based, Staphylococcus aureus; details: for MIC: Staphylococcus aureus, read-out: Minimal inhibitory concentration (MIC)
# S. aureus 6850 [2] = assay: Over-night treated culture, bacterial titers (CFU/ml) and OD600; type: cell-based, Staphylococcus aureus; details: for effect on bacterial titers (CFU/ml): over night treatment, S. aureus 6850, vs solvent
# MRSA strain USA300 = assay: as above; type: cell-based, Staphylococcus aureus
# S. aureus = assay: Resistance development during 17 days of constant treatment; type: cell-based, Staphylococcus aureus; details: 24 h cycles repeated for 17 days
# S. aureus 6850 [3] = type: cell-based, Staphylococcus aureus
# [4] = test system: influenza A virus strain RB1 [A/Regensburg/D6/09 (H1N1 pdm09)]; assay: Progeny virus inhibition assay in A549 cells; type: cell-based
# [5] = Pharmacokinetics, drug in plasma after i.v. or per os application; type: in vivo, NMRI mice
# Protocol: Blood was collected at 15 min, 30 min, 1 h, 2 h, 4 h, 6 h, 8 h and 24 h (test day 2) after administration and plasma was analysed for the presence of the drug. […] Blood was collected at 15 min, 30 min, 1 h, 2 h, 4 h, 6 h, 8 h and 24 h (test day 2) after administration and plasma was analysed for the presence of the drug. Each data point represents the mean value of three plasma samples. Graphpad Prism 7 software was used to illustrate both figures.
# 34.88 mg PD-0184264 were dissolved in 0.075 ml DMSO and further diluted with 0.225 ml Cremophor EL/2.7 ml PBS. […] 81.0 mg PD-0184264 were dissolved in 0.2 ml DMSO/0.6 ml Cremophor EL/3.2 ml PBS.
# Eight week old male NMRI mice (Charles River Laboratories, Germany) with a body weight of 23.9-36.5 g at administration were used for pharmacokinetic studies. The animals were normally fed. Drinking water was available ad libitum.
# Experiments were performed at LPT GmbH (Hamburg, Germany). Sufficient whole blood—taken under isoflurane anaesthesia—was collected to obtain at least 2×100 μl Li-Heparin plasma of 3 animals per group and time-point at the following times: 0 (predose), 15 min, 30 min, 1 h, 2 h, 4 h, 6 h, 8 h and 24 h (test day 2) after administration. The whole blood samples were instantly cooled using an Iso-Therm-Rack system (Eppendorf AG, Germany) until centrifugation within 0.5 hours after withdrawal. Immediately after centrifugation, the samples were stored at −20° C. until further analysis. Plasma analysis was performed using standard procedures at Prolytic GmbH (Frankfurt, Germany).
# Drugs were either administrated using a single dosing on test day 1 by oral gavage or by Intravenous bolus injection into a tail vein. The Injection speed was 15 s/dose with an administration volume of 200 μl.
# [6] = test system: influenza A virus strain RB1 [A/Regensburg/D6/09 (H1N1 pdm09)]; details: against RB1, Haasbach et al. 2017; cited from earlier work
# A549 cells = details: read-out: CC50 value; Haasbach et al. 2017; cited from earlier work
# [7] = test system: MRSA strain S. aureus (USA300); assay: Cell-free culture bacterial growth (OD600); details: 50 μM, monitored for 360 minutes, vs solvent DMSO
# Protocol: Bacterial growth was monitored for 360 minutes.
# MRSA bacteria were incubated with different concentrations of the MEK inhibitor ranging from 0-100 μM and bacterial growth was monitored six hours after cultivation.
# [8] = S. aureus 6850, culture treated over night with 20 μM PD0184264
# [9] = S. aureus 6850, untreated (solvent) culture
# [10] = S. aureus USA300, culture treated over night with PD0184264
# [11] = S. aureus USA300, untreated (solvent) culture
# [12] = Staphylococcus aureus, 6850, S. aureus 6850, culture treated over night with 20 μM PD0184264
# [13] = Staphylococcus aureus, 6850, S. aureus 6850, untreated (solvent) culture
# [14] = USA300, S. aureus USA300, culture treated over night with PD0184264
# [15] = USA300, S. aureus USA300, untreated (solvent) culture
molecule,measurement,setting,value
Penicillin,Minimal inhibitory concentration (MIC),S. aureus 6850 [1]; [8],0.25 to 0.5 µg/mL
same,Minimal inhibitory concentration (MIC),S. aureus 6850 [1]; [9],16 µg/mL
same,Minimal inhibitory concentration (MIC),S. aureus USA300; [10],8 µg/mL
same,Minimal inhibitory concentration (MIC),S. aureus USA300; [11],>256 µg/mL
Gentamicin,Minimal inhibitory concentration (MIC),S. aureus 6850 [1]; [8],0.12 µg/mL
same,Minimal inhibitory concentration (MIC),S. aureus 6850 [1]; [9],2 µg/mL
same,Minimal inhibitory concentration (MIC),S. aureus USA300; [10],0.12 µg/mL
same,Minimal inhibitory concentration (MIC),S. aureus USA300; [11],1 µg/mL
same,reduction in bacterial titers,"S. aureus 6850 [2]; 0.5 μg/ml, over night, S. aureus 6850",no reduction in bacterial titers
same,bacterial growth,"S. aureus 6850 [2]; concentrations higher than 1 μg/ml, over night, S. aureus 6850",strongly inhibited
same,reduction in bacterial titers,"MRSA strain USA300; 0.5 μg/ml, over night, MRSA USA300",no reduction in bacterial titers
same,bacterial growth,"MRSA strain USA300; concentrations higher than 1 μg/ml, over night, MRSA USA300",strongly inhibited
same,resistance development in S. aureus,S. aureus,resistance development occurred during the first week of treatment
CC[C@H]1OC(=O)[C@H](C)[C@@H](O[C@H]2C[C@@](C)(OC)[C@@H](O)[C@H](C)O2)[C@H](C)[C@@H](O[C@@H]2O[C@H](C)C[C@H](N(C)C)[C@H]2O)[C@](C)(O)C[C@@H](C)C(=O)[C@H](C)[C@@H](O)[C@]1(C)O [Erythromycin],resistance development in S. aureus,S. aureus,readily develop resistances
CC(=O)NC[C@H]1CN(c2ccc(N3CCOCC3)c(F)c2)C(=O)O1 [Linezolid],MIC,S. aureus 6850 [1]; [12],1 µg/mL
same,MIC,S. aureus 6850 [1]; [13],2 µg/mL
same,MIC,S. aureus USA300; [14],1 µg/mL
same,MIC,S. aureus USA300; [15],2 µg/mL
C[C@@H](O)[C@H]1C(=O)N2C(C(=O)O)=C(S[C@@H]3CN[C@H](C(=O)N(C)C)C3)[C@H](C)[C@H]12 [Meropenem],MIC,S. aureus 6850 [1]; [12],0.03 µg/mL
same,MIC,S. aureus 6850 [1]; [13],0.06 µg/mL
same,MIC,S. aureus USA300; [14],0.06 µg/mL
same,MIC,S. aureus USA300; [15],0.12 to 0.25 µg/mL
"O=C(NOCC1CC1)c1ccc(F)c(F)c1Nc1ccc(I)cc1Cl [CI-1040, 2-(2-chloro-4-iodophenylamino)-N-(cyclopropylmethoxy)-3,4-difluoro benzamide, reference compound]",effect on bacterial titers (CFU/ml),S. aureus 6850 [2],effective
same,intracellular bacterial titers,S. aureus 6850 [3],no changes in intracellular bacterial load
same,reduction of virus titer,[4],96.78±0.65%
same,drug in plasma at eight hours,[5]; 75 mg/kg i.v. application,almost no drug was detected
same,drug in plasma at eight hours,[5]; 150 mg/kg per os application,almost no drug was detected
same,EC50,[6],26 nM
same,CC50,A549 cells,> 312000 nM
same,bacterial growth (OD600),[7],slightly inhibited
"N#CC(=C(/N)Sc1ccccc1N)/C(C#N)=C(\N)Sc1ccccc1N [U0126, reference compound]",effect on bacterial titers (CFU/ml),S. aureus 6850 [2],minor reduction in bacterial titers
same,effect on bacterial titers (CFU/ml),"MRSA strain USA300; over night treatment, MRSA USA300, vs solvent",minor reduction in bacterial titers
O=C(O)c1cn(C2CC2)c2cc(N3CCNCC3)c(F)cc2c1=O [Ciprofloxacin],MIC,S. aureus 6850 [1]; [12],0.12 to 0.25 µg/mL
same,MIC,S. aureus 6850 [1]; [13],0.25 µg/mL
same,MIC,S. aureus USA300; [14],4 to 8 µg/mL
same,MIC,S. aureus USA300; [15],8 µg/mL
